The structures appear in SMILES notation. pEC50: −log10 of the molar value.

Experimental findings from ChEMBL document CHEMBL1149754, “Synthesis and evaluation of a focused library of pyridine dicarbonitriles against prion disease” (Eur J Med Chem, 2008) are described below.

In series [1] the target is Major prion protein (Homo sapiens) (UniProt P04156). Briefly: Binding affinity to human prion protein by surface plasmon resonance assay. On the technique in general: Surface plasmon resonance follows binding to a sensor surface in real time, without labels.
Series [2] deals with Major prion protein (Mus musculus) (UniProt P04925). In words: Binding affinity to mouse prion protein by surface plasmon resonance assay.
The nature of series [3]: Inhibition of PrPSc formation in mouse SMB cells at 1 uM relative to control. The class given is functional.
Series [4] is described as follows: Inhibition of PrPSc formation in mouse SMB cells at 10 uM relative to control. Type of series: functional.
Series [5] can be described thus: Inhibition of PrPSc formation in mouse SMB cells at 7.5 uM relative to control. Type of series: functional.
Series [6] is described as follows: Inhibition of PrPSc formation in mouse SMB cells. Type of series: functional, cell-based.
A short description of series [7]: Toxicity against mouse SMB cells after 5 days by MTT assay. Type of series: cell-based. The following applies: 120 h.
The nature of series [8]: Inhibition of PrPSc formation in mouse SMB cells at 0.05 uM relative to control. Type of series: functional.
Series [9] can be described thus: Inhibition of PrPSc formation in mouse SMB cells at 5 uM relative to control. Type of series: functional.
Series [10] in a line: Toxicity against mouse SMB cells at 10 uM after 5 days by MTT assay. The following applies: 120 h. Type of series: cell-based. (In general: Tetrazolium assays rely on reduction of a dye to a coloured formazan, in cell work by metabolically active cells.)

Chain of Major prion protein (Mus musculus) (P04925 whole entry): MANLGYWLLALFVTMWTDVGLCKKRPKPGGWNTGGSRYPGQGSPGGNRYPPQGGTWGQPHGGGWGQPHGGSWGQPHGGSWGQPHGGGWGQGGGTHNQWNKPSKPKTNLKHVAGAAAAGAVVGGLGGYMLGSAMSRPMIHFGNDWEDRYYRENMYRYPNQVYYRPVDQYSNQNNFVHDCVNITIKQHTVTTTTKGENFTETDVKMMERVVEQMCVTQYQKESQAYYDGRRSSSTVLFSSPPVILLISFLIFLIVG

In the case of `COC(=O)c1cccc(Sc2nc(N)c(C#N)c(-c3ccc(Cl)cc3)c2C#N)c1`, the RUmax in series [1] turned out to be 6.2%; in series [2], 0%. In addition, the inhibition – broadly, the relative decrease from the control value, in per cent – at 1 µM in series [3] came to 63%.

`N#Cc1c(N)nc(Sc2ccc(Cl)cc2)c(C#N)c1-c1ccc(Cl)cc1`: the results for the RUmax in [1] and in series [2] were 19.3% and 1.6%, respectively. Further, the inhibition at 10 µM in series [4] came out at 72%.

Consider `N#Cc1c(N)nc(Sc2ccccc2)c(C#N)c1-c1ccc2c(c1)OCO2`, for which, in series [4], the inhibition at 10 µM amounted to 86%.

In the case of `COC(=O)c1ccc(Sc2nc(N)c(C#N)c(-c3cccs3)c2C#N)cc1`, the inhibition at 10 µM in [4] was found to be 90%.

As for `N#Cc1c(N)nc(Sc2cccc(O)c2)c(C#N)c1-c1cccs1`, the inhibition at 10 µM in [4] amounted to 77%.

Turning to `N#Cc1c(N)nc(Sc2ccccc2O)c(C#N)c1-c1ccc(Cl)cc1`, the RUmax in series [1] came out at 9.1%; in series [2] it was 0%. Moreover, the inhibition at 10 µM in series [4] was found to be 76%.

For `COC(=O)c1ccc(Sc2nc(N)c(C#N)c(-c3ccco3)c2C#N)cc1`, the inhibition at 10 µM in [4] worked out at 69%.

On to `COC(=O)c1ccc(-c2c(C#N)c(N)nc(SCc3ccccc3)c2C#N)cc1`, for which the RUmax was determined as 9.3% in series [1] and 0% in series [2]. Also, in series [4], the inhibition at 10 µM was determined as 107%.

In the case of `N#Cc1c(N)nc(Sc2ccccc2O)c(C#N)c1-c1ccc2c(c1)OCCO2`, the RUmax in [1] amounted to 13.6%; in series [2], 4.9%. Moreover, the inhibition at 10 µM in series [4] is 89%.

Take `N#Cc1c(N)nc(SCc2ccccc2)c(C#N)c1-c1ccco1`: the inhibition at 10 µM in series [4] was 111%.

Take `COC(=O)c1ccc(-c2c(C#N)c(N)nc(Sc3ccc(O)cc3)c2C#N)cc1`: in series [5], the inhibition at 7.5 µM is 45%.

In the case of `COC(=O)c1cccc(Sc2nc(N)c(C#N)c(-c3ccco3)c2C#N)c1`, the RUmax turned out to be 26.9% in series [1] and 2.2% in [2]. For the same compound, the inhibition at 10 µM in series [4] stood at 69%.

Turning to `COC(=O)c1ccc(Sc2nc(N)c(C#N)c(-c3cccc(O)c3)c2C#N)cc1`, the inhibition at 10 µM in series [4] was 70%.

On to `N#Cc1c(N)nc(Sc2ccccc2)c(C#N)c1-c1ccc2c(c1)OCCO2`, for which the RUmax in series [1] was 27.9%; in series [2], 0%. In addition, in [4], the inhibition at 10 µM turned out to be 61%.

For the compound `N#Cc1c(N)nc(Sc2cccc(O)c2)c(C#N)c1-c1ccc(Cl)cc1`, the inhibition at 10 µM in series [4] was 73%.

Regarding `N#Cc1c(N)nc(Sc2cccc(Cl)c2)c(C#N)c1-c1ccc(Cl)cc1`, the inhibition at 10 µM in series [4] was 71%.

As to `COC(=O)c1ccc(-c2c(C#N)c(N)nc(Sc3cccc(C(=O)OC)c3)c2C#N)cc1`, in [6], the pEC50 (in general, −log10 of the EC50, conventionally taken in molar units) is 5.10.

Consider `N#Cc1c(N)nc(SCc2ccccc2)c(C#N)c1-c1ccc(Cl)cc1`, for which the RUmax in series [1] was found to be 8.6%; in [2], 0%. The inhibition at 10 µM in series [4] is 92%.

As for `N#Cc1c(N)nc(Sc2ccc(O)cc2)c(C#N)c1-c1cccc(O)c1`, the inhibition at 10 µM in series [4] came to 85%.

For the compound `N#Cc1c(N)nc(Sc2ccc(Cl)cc2)c(C#N)c1-c1ccco1`, the RUmax was found to be 37% in [1] and 44.8% in series [2]. The inhibition at 10 µM in series [4] was found to be 73%.

For `N#Cc1c(N)nc(Sc2cccc(Cl)c2)c(C#N)c1-c1ccc2c(c1)OCO2`, the RUmax was 78.6% in [1] and 10.5% in series [2]. The inhibition at 10 µM in series [4] worked out at 96%.

`COC(=O)c1cccc(Sc2nc(N)c(C#N)c(-c3ccc4c(c3)OCO4)c2C#N)c1`: the figures for the RUmax in [1] and in series [2] were 156% and 70.4%, respectively. In addition, the inhibition at 10 µM in series [4] was determined as 75%.

For `N#Cc1c(N)nc(Sc2ccccc2O)c(C#N)c1-c1cccs1`, the RUmax is 16.9% in series [1] and 6.1% in [2]. Also, in series [4], the inhibition at 10 µM was 65%.

For the compound `N#Cc1c(N)nc(Sc2ccc(Cl)cc2)c(C#N)c1-c1cccs1`, the values for the RUmax in series [1] and in series [2] were 8.8% and 0%, respectively. Also, in series [6], the pEC50 is 5.52.

For the compound `N#Cc1c(N)nc(Sc2ccc(O)cc2)c(C#N)c1-c1ccc2c(c1)OCCO2`, the Activity result in series [7] was “Toxic”.

Take `N#Cc1c(N)nc(Sc2ccc(O)cc2)c(C#N)c1-c1cccs1`: the inhibition at 10 µM in [4] was 86%.

As for `COC(=O)c1cccc(Sc2nc(N)c(C#N)c(-c3ccc4c(c3)OCCO4)c2C#N)c1`, the inhibition at 0.05 µM in series [8] was 44%.

In the case of `N#Cc1c(N)nc(Sc2cccc(O)c2)c(C#N)c1-c1cccc(O)c1`, in series [9], the inhibition at 5 µM amounted to 36%. In addition, the Activity result in [10] was “Toxic”.

Take `N#Cc1c(N)nc(Sc2ccc(Cl)cc2)c(C#N)c1-c1ccc2c(c1)OCCO2`: the inhibition at 10 µM in series [4] was found to be 68%.

Consider `COC(=O)c1cccc(Sc2nc(N)c(C#N)c(-c3cccs3)c2C#N)c1`, for which the inhibition at 10 µM in [4] is 87%.

`COC(=O)c1ccc(-c2c(C#N)c(N)nc(Sc3ccc(Cl)cc3)c2C#N)cc1`: the RUmax in series [1] amounted to 10.6%; in series [2], 2.4%. Besides, the inhibition at 10 µM in series [4] was 73%.

With `COC(=O)c1ccc(Sc2nc(N)c(C#N)c(-c3ccc(Cl)cc3)c2C#N)cc1`, the Activity result in [7] is on record as “Toxic”.

With `N#Cc1c(N)nc(Sc2cccc(O)c2)c(C#N)c1-c1ccc2c(c1)OCCO2`, in series [4], the inhibition at 10 µM worked out at 86%.

As for `N#Cc1c(N)nc(Sc2ccc(Cl)cc2)c(C#N)c1-c1ccc2c(c1)OCO2`, in series [4], the inhibition at 10 µM is 67%.

On to `N#Cc1c(N)nc(Sc2cccc(Cl)c2)c(C#N)c1-c1cccc(O)c1`, for which, in series [9], the inhibition at 5 µM is 36%. Further, in [10], the Activity result was “Toxic”.

With `N#Cc1c(N)nc(Sc2ccc(Cl)cc2)c(C#N)c1-c1cccc(O)c1`, the RUmax in series [1] amounted to 15.7%; in series [2], 8.9%. In [6], this compound had a pEC50 of 5.52.

`N#Cc1c(N)nc(Sc2ccc(O)cc2)c(C#N)c1-c1ccco1`: the values for the RUmax in [1] and in [2] were 21.9% and 19.6%, respectively. In series [8], the inhibition at 0.05 µM turned out to be 24%.

Regarding `N#Cc1c(N)nc(SCc2ccccc2)c(C#N)c1-c1cccc(O)c1`, the RUmax in series [1] worked out at 96.5%; in series [2] it was 112%. Besides, in series [4], the inhibition at 10 µM amounted to 113%.

Consider `N#Cc1c(N)nc(Sc2cccc(O)c2)c(C#N)c1-c1ccc2c(c1)OCO2`, for which the RUmax in series [1] was found to be 250%; in [2], 138%. Also, in series [4], the inhibition at 10 µM was 75%.

As to `N#Cc1c(N)nc(SCc2ccccc2)c(C#N)c1-c1ccc2c(c1)OCO2`, the inhibition at 10 µM in series [4] is 79%.

Consider `COC(=O)c1ccc(-c2c(C#N)c(N)nc(Sc3cccc(O)c3)c2C#N)cc1`, for which the results for the RUmax in series [1] and in [2] were 8.4% and 0%, respectively. In addition, in series [4], the inhibition at 10 µM was 77%.

Regarding `N#Cc1c(N)nc(Sc2cccc(Cl)c2)c(C#N)c1-c1ccc2c(c1)OCCO2`, the RUmax in [1] was determined as 11.3%; in series [2], 4.3%. Besides, in series [6], the pEC50 is 5.60.

For `COC(=O)c1cccc(Sc2nc(N)c(C#N)c(-c3cccc(O)c3)c2C#N)c1`, the inhibition at 10 µM in series [4] was found to be 123%.

As for `N#Cc1c(N)nc(Sc2cccc(Cl)c2)c(C#N)c1-c1cccs1`, the RUmax came out at 124% in series [1] and 72.2% in series [2]. The inhibition at 10 µM in series [4] stood at 84%.

`N#Cc1c(N)nc(Sc2ccc(O)cc2)c(C#N)c1-c1ccc2c(c1)OCO2`: the inhibition at 10 µM in [4] came to 82%.

For the compound `COC(=O)c1ccc(-c2c(C#N)c(N)nc(Sc3ccccc3O)c2C#N)cc1`, the RUmax was found to be 5.7% in [1] and 0% in series [2]. The inhibition at 10 µM in series [4] was found to be 72%.

As to `N#Cc1c(N)nc(Sc2cccc(Cl)c2)c(C#N)c1-c1ccco1`, the inhibition at 10 µM in series [4] was 94%.

With `COC(=O)c1ccc(Sc2nc(N)c(C#N)c(-c3ccc(C(=O)OC)cc3)c2C#N)cc1`, the pEC50 in series [6] was 5.05.

As for `N#Cc1c(N)nc(SCc2ccccc2)c(C#N)c1-c1ccc2c(c1)OCCO2`, the inhibition at 10 µM in series [4] turned out to be 94%.

In the case of `N#Cc1c(N)nc(Sc2ccc(O)cc2)c(C#N)c1-c1ccc(Cl)cc1`, the inhibition at 10 µM in series [4] turned out to be 90%.

In the case of `COC(=O)c1ccc(-c2c(C#N)c(N)nc(Sc3cccc(Cl)c3)c2C#N)cc1`, the inhibition at 5 µM in [9] came to 46%.

As to `N#Cc1c(N)nc(SCc2ccccc2)c(C#N)c1-c1cccs1`, the RUmax in series [1] turned out to be 55.5%; in series [2] it was 52.6%. Moreover, the inhibition at 10 µM in series [4] was 81%.

As to `COC(=O)c1ccc(Sc2nc(N)c(C#N)c(-c3ccc4c(c3)OCCO4)c2C#N)cc1`, the RUmax turned out to be 6% in series [1] and 0% in series [2]. The inhibition at 0.05 µM in series [8] stood at 23%.
